Test results: patent US20110081428A1, “Use of thioflavin-like compounds to increase life span and/or health span” (priority 2009, published 2011)

Tests used:
[1] = test system: DA465 [eat-2(ad465)II]; experiment: Lifespan assay, eat-2 mutant; format: in vivo, Caenorhabditis elegans; conditions: 50 μM ThT
Procedure: Lifespan assays were performed as described previously. (McColl, G. et al. Pharmacogenetic analysis of lithium-induced delayed aging in Caenorhabditis elegans. J Biol Chem 283, 350-357 (2008). Briefly, the nematode growth media (NGM) plates were prepared under sterile conditions. 100 μL of concentrated stocks of each of the compounds used in this study were added onto a previously prepared NGM small plate (3 mL volume) immediately spread over the surface of the plate. The final concentrations quoted in the text assume an even distribution of compound throughout the 3 ml plate. The plates were then placed in a laminar flow hood at room temperature for 30 min and then 60 μL of a concentrated suspension of E. coli OP50 was spotted to form a circular lawn on the center of each plate. Thirty late L4 larvae growing at 20° C. were transferred to fresh NGM plates with FUdR (75 μM) in presence or absence of the specified compounds and incubated at 20° C. The first day of adulthood is Day 3 in survival curves. There was between-experiment variation in the magnitude of the lifespan extension observed with ThT which appeared to correlate with different suppliers and batches. ThT concentration should be optimized depending on batch and purity and stability of the compound. […]
Animals were scored as alive, dead or lost every other day. […]

[2] = test system: wildtype (N2) C. elegans; experiment: Demographic analysis of age-specific mortality (Gompertz); format: in vivo, Caenorhabditis elegans; conditions: 50 μM ThT, p<0.001
Procedure: Data are presented as bends/min and represent the average of three independent experiments. *p<0.0001. e) Dose-response Kaplan-Meier survival curves of synchronously ageing hermaphrodite N2 populations exposed to 0 (control) to […], f) HBX and g) HBT at 20° C. (−) Control, (▪) 1 nM, ([…]) 10 μM, (▴) 100 μM, (▾) […]. Graphs are representative of three independent experiments.
Estimates of initial mortality rate and rate of increase with age and model fitting were made using WinModest. Gompertz mortality curves, ln(ux)=ln(a)+bx, where ux defines the age-specific hazard, were fitted with log-likelihood ratios used to examined the effects of constraining the intercept (a) or gradient (b) variables.

Question: Which “lifespan of eat-2 mutant (genetic DR model)” value [1] does the source give for `Cc1ccc2c(c1)sc(-c1ccc(N(C)C)cc1)[n+]2C.[Cl-]` [ThT, 4-(3,6-dimethyl-1,3-benzothiazol-3-ium-2-yl)-N,N-dimethylaniline chloride] here?
Answer: Its value is “increased the lifespan”.

Question: And the age-specific mortality [2]?
Answer: The age-specific mortality was “reduced age-specific mortality at all ages”.
